# From patent publication US9266897B2, “Derivatives of protoberberine biological alkaloids and use of same inhibiting ulcerative colitis” (Institute of Materia Medica, Chinese Academy of Medical …, priority 2011, dated 2016)
# “Also recorded” adds a separate entry of the source. Marks after values point to notes of the source that are not given here.
# Legend:
# xbp1 upstream promoter = assay: Transcriptional activation of pGL3-pxbp1 (dual luciferase reporter gene) in IEC-6 cells; type: cell-based; conditions: Rattus norvegicus, IEC-6 cells transfected with pGL3-pxbp1, 36 h-48 h, read-out: EC50 of transcriptional activation effect on xbp1 gene
# Procedure: (§1) (1) Method: IEC-6 cells in the period of vigorous growth were seed in 48 well plate at a density of 5×10^4 to disperse the cells uniform and then it was placed in a humidifying cell incubator filled with 5% CO2 at 37° C. to incubate. Plasmid transfection (0.6 μg/well) was carried out when the cells confluencing up to 70%-80%. After 4 h, each compound of 1×10^−5 mol/L was added into these wells (n=3), respectively, and incubated for another 36 h-48 h together with existing transfected cells. Luciferase activity detection on test samples was proceeded using dual luciferase report gene detection kit (Promega, USA).
# as §1, with “logarithmic phase” for “vigorous growth”, “different concentrations” for “each compound”, “compounds 1, 2, 7, and 10 were” for “1×10^−5 mol/L was”, “added” for “added into these wells”
# [1] = tested on: SD rats with acetic acid-induced UC; assay: Acetic acid-induced acute UC in SD rats; type: in vivo
# Procedure: (§2) (1) Method: In vivo test was carried out according to the literature: Y. Yoshioka, H. Akiyama, M. Nakano, T. Shoji, T. Kanda, Y. Ohtake, T. Takita, R. Matsuda, T. Maitani. Orally administered apple procyanidins protect against experimental inflammatory bowel disease in mice, international immunopharmacology, 2008, 1802-1807.
# Disease activity index (DAI) is evaluated by weight loss, shape of stool, hematochezia, and other indicators; macroscopic score of colon tissue is evaluated by intestinal mucosal hyperemia, edema of intestinal wall, ulcer size, and other indicators. The lower the DAI and macroscopic score is, the more close to the normal physiological state. In Table 1: **p<0.01 when compared with the normal control group; ##p<0.01 when compared with the model group.
# [2] = tested on: C57/blc mice with DSS-induced UC; assay: DSS-induced acute UC in C57/blc mice; type: in vivo; conditions: for colon histopathology (inflammatory lesion): HE×200
# Procedure: as §2
# DAI is evaluated by weight loss, shape of stool, hematochezia, and other indicators; macroscopic score of colon tissue is evaluated by intestinal mucosal hyperemia, edema of intestinal wall, ulcer size, and other indicators. The lower the DAI and macroscopic score is, the more close to the physiological state of the normal animal. In Table 3: **p<0.01 when compared with the normal control group; ##p<0.01 when compared with the model group.
# [3] = Table 5, 300 mg/kg, model 3.39 ± 0.64
# [4] = Table 5, 300 mg/kg, model 5.69 ± 1.12
# [5] = Table 7, 300 mg/kg, model 3.85 ± 0.34
# [6] = Table 7, 300 mg/kg, model 5.59 ± 1.01
smiles,measurement,setting,value
"CC(=O)CC1c2c(ccc3c2OCO3)C=C2c3cc4c(cc3CCN21)OCO4 (racemic) [Compound 7, (±)-8-acetonyldihydrocoptisine]",EC50,xbp1 upstream promoter,221 nM
same,macroscopic and histopathological results of colon tissue,[1]; 300 mg/kg,good therapeutic effect on UC
same,body weight change value compared with before administration (decreased by),"[1]; 300 mg/kg, model group decreased by 19.2%",10%
same,macroscopic score,"[1]; Table 1, 300 mg/kg",2.05 ± 0.45##
same,DAI,"[1]; Table 1, 300 mg/kg, model 3.15 ± 0.45",1.15 ± 0.22##
same,disease activity index (DAI) inhibitory rate in UC model,[2]; 500 mg/kg,64%
same,colon histopathology (inflammatory lesion),[2]; HD group 500 mg/kg,significant improvement on the colon inflammatory lesion; also recorded: the lesion of inflammatory bowel diseases is more significantly improved
same,colon histopathology (inflammatory lesion),[2]; LD group 125 mg/kg,the inflammatory lesions of colon tissue also has a partial remission
same,colon histopathology (inflammatory lesion),[2]; MD group 250 mg/kg,the inflammatory lesions of colon tissue also has a partial remission
same,Body weight (g) x ± SD end,"[2]; Table 2, HD 500 mg/kg",21.57 ± 1.5 g
same,Body weight (g) x ± SD end,"[2]; Table 2, MD 250 mg/kg",20.54 ± 2.1 g
same,DAI,"[2]; Table 3, HD 500 mg/kg, model 3.33 ± 0.54",1.33 ± 0.31##
same,macroscopic score of colon tissue,"[2]; Table 3, HD 500 mg/kg, model 5.54 ± 1.23",2.05 ± 0.28##
same,DAI,"[2]; Table 3, LD 125 mg/kg, model 3.33 ± 0.54",3.01 ± 0.38
same,macroscopic score of colon tissue,"[2]; Table 3, LD 125 mg/kg, model 5.54 ± 1.23",4.93 ± 0.61
same,DAI,"[2]; Table 3, MD 250 mg/kg, model 3.33 ± 0.54",2.01 ± 0.27##
same,macroscopic score of colon tissue,"[2]; Table 3, MD 250 mg/kg, model 5.54 ± 1.23",3.30 ± 0.66##
"C1=C2c3cc4c(cc3CCN2Cc2c1ccc1c2OCO1)OCO4 [Compound 1, dihydrocoptisine]",EC50,xbp1 upstream promoter,2.29 nM
same,disease activity index (DAI) inhibitory rate in UC model,[2]; 300 mg/kg,69%
same,Body weight (g) x ± SD end,"[2]; Table 4, HD 500 mg/kg",19.87 ± 1.0 g
same,Body weight (g) x ± SD end,"[2]; Table 4, LD 75 mg/kg",21.15 ± 1.1 g
same,Body weight (g) x ± SD end,"[2]; Table 4, MD 250 mg/kg",19.95 ± 1.6 g
same,DAI,[2]; [3],2.33 ± 0.11##
same,macroscopic score of colon tissue,[2]; [4],2.66 ± 0.46##
same,DAI,"[2]; Table 5, LD 75 mg/kg, model 3.39 ± 0.64",2.99 ± 0.14#
same,macroscopic score of colon tissue,"[2]; Table 5, LD 75 mg/kg, model 5.69 ± 1.12",4.93 ± 0.61
same,DAI,"[2]; Table 5, MD 150 mg/kg, model 3.39 ± 0.64",1.81 ± 0.27##
same,macroscopic score of colon tissue,"[2]; Table 5, MD 150 mg/kg, model 5.69 ± 1.12",2.01 ± 0.16##
"C1=C2c3cc4c(cc3CCN2Cc2cc3c(cc21)OCO3)OCO4 [Compound 2, dihydropseudocoptisine]",EC50,xbp1 upstream promoter,7.06 nM
same,disease activity index (DAI) inhibitory rate in UC model,[2]; 300 mg/kg,80%
same,Body weight (g) x ± SD end,"[2]; Table 6, 300 mg/kg",26.17 ± 1.5 g
same,DAI,[2]; [5],1.05 ± 0.26##
same,macroscopic score of colon tissue,[2]; [6],2.94 ± 0.21##
C=C(C(=O)CC)c1c2c(OC)c(OC)ccc2c(C)c2[n+]1CCc1cc3c(cc1-2)OCO3 [Compound 10],EC50,xbp1 upstream promoter,47.3 nM
"O=C(O)c1cc(/N=N/c2ccc(S(=O)(=O)Nc3ccccn3)cc2)ccc1O [SASP, reference compound]",disease activity index (DAI) inhibitory rate in UC model,[2]; 300 mg/kg,32%
same,Body weight (g) x ± SD end,"[2]; Table 2, 300 mg/kg",20.09 ± 0.9 g
same,DAI,"[2]; Table 3, 300 mg/kg, model 3.33 ± 0.54",2.27 ± 0.43##
same,macroscopic score of colon tissue,"[2]; Table 3, 300 mg/kg, model 5.54 ± 1.23",3.24 ± 0.77##
same,Body weight (g) x ± SD end,"[2]; Table 4, 300 mg/kg",21.15 ± 0.6 g
same,DAI,[2]; [3],2.54 ± 0.23##
same,macroscopic score of colon tissue,[2]; [4],2.95 ± 0.52##
same,Body weight (g) x ± SD end,"[2]; Table 6, 300 mg/kg",25.09 ± 0.9 g
same,DAI,[2]; [5],2.27 ± 0.43##
same,macroscopic score of colon tissue,[2]; [6],3.24 ± 0.77##
same,colon histopathology (inflammatory lesion),[2]; positive drug SASP group,improvement of visible colitis lesions and partial recovery of structure of each layer
